According to US11299472B2, “Fumarate salt of (R)-3-(1-(2,3-dichloro-4-(pyrazin-2-yl)phenyl)-2,2,2- trifluoroethyl)-1-methyl-1-(1-methylpiperidin-4-yl) urea, methods of preparation, and uses thereof” (Helsinn Healthcare SA, priority 2017, dated 2022):
Where two headings read alike, the source gives them in different places.

Assay: Dog pharmacokinetic study, single oral HM04 fumarate salt 3, 10, 30 mg/kg (Example 10)
Assay type: in vivo, male Beagle dogs
Details: for concentration at 0.5 h: 0.50 hours
Protocol: The pharmacokinetics of HM04 in plasma after single oral administration of HM04 fumarate salt to 6-week old male Sprague Dawley rats and male Beagle dogs (1-5 years of age) was investigated. Test formulations of 0.6 mg/mL, 2 mg/mL, and 6 mg/mL HM04 fumarate salt (based on weight of the free base) were prepared in 5% glucose solution. Doses of 3, 10, and 30 mg/kg HM04 fumarate salt (based on weight of the free base) were administered by gastric gavage as a 5 mL/kg dose volume of each of the three test formulations. Four animals were in each dose group. The formulation was administered to the dogs in fasting conditions with food provided three hours post-dosing.
Oral absolute bioavailability at 3 mg/kg was calculated from the ratio of individual oral AUC∞ to the individual AUC∞ values determined following intravenous administration of 3 mg/kg HM04 fumarate salt (based on weight of the free base) to the same four male Beagle dogs.
Oral absolute bioavailability at 10 mg/kg was calculated from the ratio of individual oral AUC∞ to the individual AUC∞ values determined following intravenous administration of 10 mg/kg HM04 fumarate salt (based on weight of the free base) to the same four male Beagle dogs.
Plasma HM04 concentrations were measured by LC-MS/MS following protein precipitation in the 96-well plate format. At the time of analysis samples were thawed out at ambient temperature. Aliquots of 25 μL of rat or dog K3EDTA plasma were spiked with 300 μL of internal standard (25 ng/mL of HM04-d8 in acetonitrile). After gentle vortex mixing for 5 minutes and centrifugation at 2010 g for 15 minutes at 4° C., an aliquot of 100 μL of the organic phase was transferred into a fresh 96-well polypropylene plate, using a P3-Evolution robotic system (Perkin Elmer). Following dilution with 100 μL of […] ammonium formate pH 3.5, an aliquot of 10 μL was injected into the LC-MS/MS system.

[1] = male, Beagle, plasma, 3 mg/kg oral, n=4
[2] = male, Beagle, plasma, 10 mg/kg oral, n=4
[3] = male, Beagle, plasma, 30 mg/kg oral, n=4
[4] = oral dose range of 3 to 30 mg/kg

concentration at 4 h [1]: 185 ± 115 ng/mL
concentration at 8 h [1]: 95.6 ± 83.3 ng/mL
concentration at 24 h [1]: 8.83 ± 14.7 ng/mL
AUC(0-t) [1]: 2160 ± 1720 ng·h/mL
Cmax [1]: 425 ± 222 ng/mL
Tmax [1]: 0.875 ± 0.25 h
half-life (male, Beagle, plasma, 3 mg/kg oral, n=4, read-out: t1/2 (converted)): 4.02 ± 1.21 h
bioavailability (male, Beagle, plasma, 10 mg/kg oral vs 10 mg/kg intravenous, individual AUC∞ ratios): 68 ± 10%
concentration at 0 h (male, Beagle, plasma, 10 mg/kg oral, 0 hours (pre-dose), n=4): 2.15 ± 4.3 ng/mL
concentration at 0.25 h [2]: 307 ± 246 ng/mL
concentration at 0.5 h [2]: 862 ± 460 ng/mL
concentration at 1 h [2]: 1510 ± 435 ng/mL
concentration at 2 h [2]: 1170 ± 260 ng/mL
concentration at 4 h [2]: 789 ± 150 ng/mL
concentration at 8 h [2]: 468 ± 171 ng/mL
concentration at 24 h [2]: 65.1 ± 65.2 ng/mL
AUC(0-t) [2]: 10900 ± 3500 ng·h/mL
Cmax [2]: 1510 ± 435 ng/mL
Tmax [2]: 1 h
half-life (male, Beagle, plasma, 10 mg/kg oral, n=4, read-out: t1/2 (converted)): 4.93 ± 1.31 h
concentration at 0.25 h [3]: 1940 ± 1330 ng/mL
concentration at 0.5 h [3]: 3730 ± 1560 ng/mL
concentration at 1 h [3]: 5720 ± 1200 ng/mL
concentration at 2 h [3]: 5030 ± 710 ng/mL
concentration at 4 h [3]: 3780 ± 577 ng/mL
concentration at 8 h [3]: 2440 ± 176 ng/mL
concentration at 24 h [3]: 560 ± 147 ng/mL
AUC(0-t) [3]: 54000 ± 6010 ng·h/mL
Cmax [3]: 5720 ± 1200 ng/mL
Tmax [3]: 1 h
half-life (male, Beagle, plasma, 30 mg/kg oral, n=4, read-out: t1/2 (converted)): 6.97 ± 0.613 h
half-life (male, Beagle, plasma, intravenous, range, read-out: half-life after intravenous administration): 4 to 5 h
AUC(0-inf) (male, Beagle, plasma, iv, 3 mg/kg, Dog 1, 3 mg/kg intravenous, read-out: individual IV AUC∞): 6190 ng·h/mL
AUC(0-inf) (male, Beagle, plasma, iv, 3 mg/kg, Dog 2, 3 mg/kg intravenous, read-out: individual IV AUC∞): 3100 ng·h/mL
AUC(0-inf) (male, Beagle, plasma, iv, 3 mg/kg, Dog 3, 3 mg/kg intravenous, read-out: individual IV AUC∞): 3210 ng·h/mL
AUC(0-inf) (male, Beagle, plasma, iv, 3 mg/kg, Dog 4, 3 mg/kg intravenous, read-out: individual IV AUC∞): 3070 ng·h/mL
AUC(0-inf) (male, Beagle, plasma, iv, 10 mg/kg, Dog 1, 10 mg/kg intravenous, read-out: individual IV AUC∞): 22500 ng·h/mL
AUC(0-inf) (male, Beagle, plasma, iv, 10 mg/kg, Dog 2, 10 mg/kg intravenous, read-out: individual IV AUC∞): 13200 ng·h/mL
AUC(0-inf) (male, Beagle, plasma, iv, 10 mg/kg, Dog 3, 10 mg/kg intravenous, read-out: individual IV AUC∞): 15500 ng·h/mL
AUC(0-inf) (male, Beagle, plasma, iv, 10 mg/kg, Dog 4, 10 mg/kg intravenous, read-out: individual IV AUC∞): 14900 ng·h/mL
half-life (male, Beagle, plasma, oral 3 to 30 mg/kg, range, read-out: apparent terminal half-life): 4 to 7 h
AUC(0-inf) (male, Beagle, plasma, po, 3 mg/kg, Dog 1, 3 mg/kg oral, read-out: individual oral AUC∞): 4930 ng·h/mL
AUC(0-inf) (male, Beagle, plasma, po, 3 mg/kg, Dog 2, 3 mg/kg oral, read-out: individual oral AUC∞): 1440 ng·h/mL
AUC(0-inf) (male, Beagle, plasma, po, 3 mg/kg, Dog 3, 3 mg/kg oral, read-out: individual oral AUC∞): 1160 ng·h/mL
AUC(0-inf) (male, Beagle, plasma, po, 3 mg/kg, Dog 4, 3 mg/kg oral, read-out: individual oral AUC∞): 1850 ng·h/mL
AUC(0-inf) (male, Beagle, plasma, po, 10 mg/kg, Dog 1, 10 mg/kg oral, read-out: individual oral AUC∞): 17500 ng·h/mL
AUC(0-inf) (male, Beagle, plasma, po, 10 mg/kg, Dog 2, 10 mg/kg oral, read-out: individual oral AUC∞): 8780 ng·h/mL
AUC(0-inf) (male, Beagle, plasma, po, 10 mg/kg, Dog 3, 10 mg/kg oral, read-out: individual oral AUC∞): 8470 ng·h/mL
AUC(0-inf) (male, Beagle, plasma, po, 10 mg/kg, Dog 4, 10 mg/kg oral, read-out: individual oral AUC∞): 10900 ng·h/mL
time to maximal concentrations of HM04 (single oral administrations, post-dosing): ≤ 1 h
SMILES: CN1CCC(N(C)C(=O)N[C@H](c2ccc(-c3cnccn3)c(Cl)c2Cl)C(F)(F)F)CC1.O=C(O)/C=C/C(=O)O [HM04 fumarate salt, (R)-3-(1-(2,3-dichloro-4-(pyrazin-2-yl)phenyl)-2,2,2-trifluoroethyl)-1-methyl-1-(1-methylpiperidin-4-yl)urea fumarate salt]
AUC versus dose [4]: increased more than in direct proportion with the dose
Cmax versus dose [4]: increased roughly proportionally with the dose
